Results taken from patent US20250304587A1, “WEE1 INHIBITOR, PREPARATION THEREFOR AND USE THEREOF” (JIANGSU TASLY DIYI PHARMACEUTICAL CO., LTD., priority 2022, published 2025).

How the values were obtained:
[1] = target: Wee1 protein (Homo sapiens (Human), UniProt P30291); test: TR-FRET binding of compound to Wee1 protein and Tracer 178; details: Tracer 178, read-out: IC50, inhibitory activity against Wee1 kinase
Experimental: First, solutions of the compounds in different concentration gradients were prepared. The compounds were dissolved in DMSO and the compounds were diluted 4 folds with a total of 10 dose points and 2 parallel replicates for each concentration.
The IC50 for inhibition of enzyme activity by the compounds was then calculated using GraphPad Prism 6 and fitted with a log (inhibitor) vs. response-Variable slope mode. The fitting equation was: Y=Bottom+(Top−Bottom)/(1+10^((Log IC50−X)*HillSlope)), where Y represents the percentage of residual enzyme activity known and X represents the known concentration of compound after the logarithm.

[2] = system: BxPC3 cells; test: Cell Titer-Glo anti-proliferation, BxPC3 cells; format: cell-based, human; details: 3 days, read-out: Anti-proliferative activity BxPC3 (IC50 class)
In short: (§1)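 Each line was exposed to graded compound concentrations for 3 days at 37 °C, 5% CO2, with final DMSO at 0.2%. Viability was measured by Cell Titer-Glo luminescence, with untreated cells as the maximum and medium as the minimum signal. IC50 came from a variable-slope log(inhibitor)-response fit.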

[3] = system: HT-29 cells; test: Cell Titer-Glo anti-proliferation, HT-29 cells; format: cell-based, human; details: 3 days, read-out: Anti-proliferative activity HT-29 (IC50 class)
In short: as §1

[4] = system: OVCAR-3 cells; test: Cell Titer-Glo anti-proliferation, OVCAR-3 cells; format: cell-based; details: 3 days, read-out: Anti-proliferative activity OVCAR-3 (IC50 class)
In short: as §1

[5] = system: HUVEC cells; test: Cell Titer-Glo anti-proliferation, normal cells HUVEC; format: cell-based
Experimental: (§2) Compound solutions of different concentration gradients were prepared. […] The cell growth group without compound was used as a positive control (maximum signal control) and the medium was used as a negative control (minimum signal control), while ensuring that the final level of DMSO in each reaction well was 0.2%. After removing the medium from the 384-well plate, 25 μl of the configured compound at different concentrations was transferred into the well plate and the compound and cells were incubated in the cell incubator at 37° C. with 5% CO2 for 3 days.
(§3) The 384-well plates were removed from the cell incubator and allowed to equilibrate for 1 h to room temperature. 25 μl of Cell Titer-Glo assay was added to each well, lysed on a shaker for 2 min and then read out (Luminescence) using a BMG PHERAStar after 10 min incubation. Calculate the inhibition rate from the luminescence signal.
(§4) to calculate the rate of inhibition of the cells by different concentrations of the compounds. The IC50 of the compound on cell activity inhibition was calculated by fitting a log(inhibitor) vs. response-Variable slope model to GraphPad Prism 6. The fitted equation was: Y=Bottom+(Top-Bottom)/(1+10^((Log IC50−X)*HillSlope)), where Y represents the rate of inhibition and X represents the concentration of the known compound after Log.
(§5) B. Evaluation of the Anti-Proliferative Effect of Compounds by the Cell Titer-Glo Method on Normal Cells HUVEC and HK2.
(§6) The test method is the same as the anti-proliferative activity evaluation of tumor cells.

[6] = system: HK2 cells; test: Cell Titer-Glo anti-proliferation, normal cells HK2; format: cell-based
Experimental: as §2, §3, §4, §5, §6

[7] = Metabolic stability in liver microsomes, mouse; format: in vitro ADME
Experimental: (§7) Test Example 3: Evaluation of the Metabolic Stability of Liver Microsomes (Mouse and Human) In Vitro Microsomes were taken out from the −80° C. refrigerator, rapidly melted in a 37° C. water bath and placed on ice until ready to use. The test article was diluted with DMSO to prepare a 10 mM stock solution, and then diluted with acetonitrile to a 0.5 mM secondary stock solution. […] NADPH was diluted with Buffer C to a working solution of 6 mM for the starter solution. An acetonitrile solution containing an internal standard was prepared as the precipitant, and Verapamil-HCl was chosen as the internal standard at a concentration of 4 ng/ml. […] A separate plate with pointed bottom wells, noted as a precipitation plate, was added with 135 μL precipitant per well; 0 h samples were transferred to the plate after 10 min incubation and 15 μL of starter solution was added; the plate was placed on ice before centrifugation. The diluted starter solution was added in sufficient quantity to the dispensing plate to facilitate the multichannel pipette aspiration operation. The reaction was carried out on a warm incubation shaker and 15 μL of starter solution/sample is added to the plate using a multichannel pipette. The reaction was mixed with a slight shake to initiate the reaction, which was accurately timed and recorded using a timer; After the reaction time had elapsed, all the solution in the plate was aspirated using the multichannel pipette and added to the precipitation plate to terminate the reaction at that point in time. After all reactions had been terminated, the plates were shaken for ten minutes on a plate shaker at 600 rpm to precipitate the protein. The plate was centrifuged at 4° C. for 15 minutes at maximum rpm. 80 μL of supernatant was taken, 320 μL of pure water was added and mixed for LC-MS analysis.

[8] = Metabolic stability in liver microsomes, human; format: in vitro ADME
Experimental: as §7

[9] = Metabolic stability in liver microsomes, rat; format: in vitro ADME
Experimental: as §7, with “Microsomes” for “Test Example 3: Evaluation of the Metabolic Stability of Liver Microsomes (Mouse and Human) In Vitro Microsomes”

[10] = Metabolic stability in liver microsomes, dog; format: in vitro ADME
Experimental: as §7, with “Microsomes” for “Test Example 3: Evaluation of the Metabolic Stability of Liver Microsomes (Mouse and Human) In Vitro Microsomes”

[11] = Metabolic stability in liver microsomes, monkey; format: in vitro ADME
Experimental: as §7, with “Microsomes” for “Test Example 3: Evaluation of the Metabolic Stability of Liver Microsomes (Mouse and Human) In Vitro Microsomes”

[12] = system: plasma protein; test: Plasma protein binding (equilibrium dialysis), rat; format: in vitro ADME; details: 1 μM, 5 h dialysis
[13] = system: plasma protein; test: Plasma protein binding (equilibrium dialysis), mouse; details: mouse plasma, 1 μM, 5 h dialysis
Experimental: Sample preparation: The compound was dissolved in DMSO to a stock solution of 10 mM, then the compound was diluted with PBS to a secondary stock solution of 0.02 mM, and then the above 0.02 mM was diluted to 1 μM using blank plasma, which was the sample to be incubated.
Dialysis set-up preparation: 400 μL of blank PBS was first added to the white wells of the equilibrated dialysis plate and 200 μL of the configured plasma sample was added to the red wells, and the dialysis plate was sealed with a sealing film.
Recovery plate preparation: Two 96-well deep-well plates, labelled T0 and T5, were prepared and all plasma samples were added at n=2. 300 μL of acetonitrile (Verapamil-HCl, 4 ng/mL) was added directly to the TO plate, followed by 50 μL of blank PBS mix well for 5 min and left to stand in a 4° C. refrigerator until the end of the incubation.
Experimental Operation: The dialysis device and the T5 plate were incubated together for 5 h in a microplate thermostatic shaker (37° C., using 300 rpm or minimum speed). At the end of the incubation, 300 μL of acetonitrile (Verapamil-HCl, 4 ng/mL) was added and 50 μL of PBS solution was added. At the end of the dialysis incubation, a new 96-well deep well plate was taken. Add 50 μL of plasma well sample to the corresponding position of the 96-well plate, 300 μL of acetonitrile and 50 μL of blank PBS; take 50 μL of buffer well sample to the corresponding position of the 96-well plate, then add 300 μL of acetonitrile and 50 μL of blank plasma. Add 300 μL of acetonitrile (Verapamil-HCl, 4 ng/mL) to the plasma-containing wells of the T5 plate, and then 50 μL of PBS solution was added. Shake for 5 min to fully precipitate the proteins and centrifuge at 20,000 g for 10 min at 4° C. Add 200 μL of supernatant to 200 μL of pure water, mix well and perform LC-MS/MS analysis.
• Plasma protein binding rate=[(Rpe−Rb)/Rpe]×100% • Recovery=[(Rpe+Rb)/R5 h]×100% • Stability=(R5/R0)×100%
• Rpe=ratio of plasma-side testing sample peak area to internal standard • Rb=ratio of buffer side testing sample peak area to internal standard • R5=ratio of incubator stability sample peak area to internal standard • R0=ratio of refrigerator stability sample peak area to internal standard

[14] = system: Caco-2 cells; test: Membrane permeability in Caco-2 model; format: in vitro ADME; details: for Efflux Ration: Caco2; for Papp A to B / Papp B to A: Caco2, 10 μM, 90 min
Experimental: (§8) Caco-2 cells were purchased from the American Model Tissue Cell Collection (Rockville, MD). The cell culture medium was modified Eagle's medium (MEM) containing 10% inactivated fetal bovine serum and 1% non-essential amino acids. […] The cells were incubated for 21-28 days after inoculation for transport experiments and the apparent permeability (Papp) of Lucifer Yellow was used to characterize and verify the compactness of the cell monolayer. […] After the incubation, dilute the samples on the apical side and basolateral side, and the concentrations of compounds on the apical and basolateral sides were detected by LC-MS/MS, and the concentrations of the compounds were quantified by standard curve.

[15] = target: hERG potassium channel (Homo sapiens (Human), UniProt Q12809); test: hERG potassium channel inhibition, patch clamp in CHO hERG cells
Experimental: The cell line used for the patch clamp assay was a 10th generation CHO cell overexpressing hERG potassium channel cDNA. CHO hERG cells were cultured in Petri dishes or flasks at 37° C. in a 5% CO2 incubator. Cells were dropped onto circular slides 24-48 hours prior to electrophysiological experiments and cultured in cell culture medium and used for experiments after the cells had been adhered.
Cell culture medium (purchased from Invitrogen) Composition: • Ham's F12 medium • 10% (v/v) heat inactivated FBS • 100 μg/ml Hygromycin B (thaumatin) • 100 μg/ml Geneticin (Genomycin, G418)
Compound powders are dissolved in the extracellular solution and are subjected to a routine 5 to 10 minute sonication and shaking to ensure complete dissolution of the compound.
The final concentrations of compounds used for electrophysiological assays were 5, 20 μM and the final concentration of DMSO was 0.1%.
Cell membrane currents were recorded using a HEKA EPC-10 USB patch-clamp amplifier (HEKA Elektronik, Germany). • 1) A coverslip with a large number of uniformly growing individual CHO hERG cells on its surface was taken. Place in a continuous recording cell on an inverted microscope, perfused with extracellular fluid (approximately 1 ml per minute) and recorded continuously, waiting for the current to stabilize. • 2) Record HERG channel currents for individual cells using standard whole cell recording mode. The membrane voltage is first clamped at −80 mV and the cell is given a +20 mV stimulus for 5 s to activate the hERG potassium channel, then repolarized to −50 mV for 5 s to generate an outward tail current, which is continuously perfused until the current is stable, at which point the peak tail current is the control current value. • 3) The extracellular solution containing the drug to be tested was then perfused and recorded until the inhibitory effect of the drug on the hERG current reached a steady state, at which point the peak tail current was the post-drug current value. • 4) The cells are again perfused with the extracellular solution until the hERG current returns to or approaches the level prior to the addition of the drug, then the perfusion can be continued to test other concentrations or drugs. One or more compound or drug concentrations may be tested on each cell. • 5) Cisapride (C4740-10 mg, Sigma) is used as a positive control in the experiment to ensure that the cells used respond properly.

[16] = Membrane permeability in Caco-2 model; format: in vitro ADME; details: human, Caco-2, pH 7.4
Experimental: as §8

Sequence of Wee1 protein (P30291 whole entry): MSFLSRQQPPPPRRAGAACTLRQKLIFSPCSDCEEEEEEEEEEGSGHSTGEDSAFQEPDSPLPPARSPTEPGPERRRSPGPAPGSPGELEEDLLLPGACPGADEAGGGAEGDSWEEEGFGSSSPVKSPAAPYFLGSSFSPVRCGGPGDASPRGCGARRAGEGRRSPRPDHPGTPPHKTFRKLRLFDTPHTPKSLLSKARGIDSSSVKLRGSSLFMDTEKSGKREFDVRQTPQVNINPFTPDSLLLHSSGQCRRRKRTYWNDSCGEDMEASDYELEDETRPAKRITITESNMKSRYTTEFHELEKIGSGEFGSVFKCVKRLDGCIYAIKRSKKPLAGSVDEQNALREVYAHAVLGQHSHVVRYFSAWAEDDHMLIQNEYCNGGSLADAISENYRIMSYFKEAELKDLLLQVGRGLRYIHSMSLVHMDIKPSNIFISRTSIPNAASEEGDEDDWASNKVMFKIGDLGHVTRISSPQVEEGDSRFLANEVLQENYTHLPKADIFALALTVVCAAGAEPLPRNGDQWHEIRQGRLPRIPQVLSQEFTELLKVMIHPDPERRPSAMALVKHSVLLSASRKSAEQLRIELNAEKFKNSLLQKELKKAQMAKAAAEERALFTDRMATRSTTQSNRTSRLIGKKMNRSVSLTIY
Sequence of hERG potassium channel (Q12809 whole entry): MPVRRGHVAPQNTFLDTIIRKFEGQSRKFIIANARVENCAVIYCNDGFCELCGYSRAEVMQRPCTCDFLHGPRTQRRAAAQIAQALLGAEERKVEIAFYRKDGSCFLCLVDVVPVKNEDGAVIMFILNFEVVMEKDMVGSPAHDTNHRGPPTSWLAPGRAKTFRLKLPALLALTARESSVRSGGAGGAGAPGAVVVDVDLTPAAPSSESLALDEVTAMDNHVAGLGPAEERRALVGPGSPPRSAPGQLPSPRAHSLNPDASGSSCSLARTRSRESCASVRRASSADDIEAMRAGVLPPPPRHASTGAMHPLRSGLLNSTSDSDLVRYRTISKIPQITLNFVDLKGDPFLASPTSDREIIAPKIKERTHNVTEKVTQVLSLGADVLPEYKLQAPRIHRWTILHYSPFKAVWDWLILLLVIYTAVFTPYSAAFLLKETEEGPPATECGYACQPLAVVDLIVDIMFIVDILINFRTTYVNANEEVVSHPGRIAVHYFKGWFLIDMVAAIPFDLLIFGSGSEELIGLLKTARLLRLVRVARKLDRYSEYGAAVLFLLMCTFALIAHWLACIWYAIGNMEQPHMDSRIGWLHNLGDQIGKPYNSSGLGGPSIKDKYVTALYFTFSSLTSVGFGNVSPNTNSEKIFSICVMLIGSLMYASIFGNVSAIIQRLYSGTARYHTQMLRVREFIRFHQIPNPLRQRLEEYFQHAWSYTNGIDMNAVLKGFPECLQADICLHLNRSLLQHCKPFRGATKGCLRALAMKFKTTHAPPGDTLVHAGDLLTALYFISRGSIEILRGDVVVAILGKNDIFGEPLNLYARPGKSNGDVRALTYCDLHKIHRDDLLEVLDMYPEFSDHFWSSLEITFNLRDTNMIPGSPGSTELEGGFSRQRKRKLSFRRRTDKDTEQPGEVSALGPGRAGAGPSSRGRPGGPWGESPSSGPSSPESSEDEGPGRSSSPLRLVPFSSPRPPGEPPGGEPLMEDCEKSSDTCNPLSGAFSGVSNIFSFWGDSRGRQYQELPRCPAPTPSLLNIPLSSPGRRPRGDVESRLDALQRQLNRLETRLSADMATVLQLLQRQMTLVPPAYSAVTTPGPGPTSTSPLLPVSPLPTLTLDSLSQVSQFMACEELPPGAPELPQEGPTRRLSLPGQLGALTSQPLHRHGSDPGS

SMILES | IC50 [1] | IC50 [2] | IC50 [3] | IC50 [4] | IC50 [5] | IC50 [6] | T1/2 liver microsomes Mouse [7] | T1/2 liver microsomes Human [8] | T1/2 liver microsomes Rat [9] | T1/2 liver microsomes Dog [10] | T1/2 liver microsomes Monkey [11] | Plasma Protein binding (PPB) Rat [12] | Plasma Protein binding (PPB) Mouse [13] | also measured
C=CCn1c(=O)c2cnc(Nc3ccc(N4C[C@H]5CN(C)C[C@H]5C4)cc3)nc2n1-c1ccc2c(n1)C(O)(CC)C1(CC1)C2 (some centres unmarked) [Compound 28] | ≤ 5 nM | 100 to 1000 nM | 100 to 1000 nM | 100 to 1000 nM | > 10000 nM | 1190 nM | 51.65 min | 29.95 min | 30.9 min | 38.2 min | 17.74 min | 86.08% | 92.29% | –
C=CCn1c(=O)c2cnc(Nc3ccc(N4CCC5(CCN(C)CC5)CC4)cc3)nc2n1-c1ccc2c(n1)C(C)(O)C1(CC1)C2 (centres unmarked) [Compound 11] | – | 100 to 1000 nM | 100 to 1000 nM | 100 to 1000 nM | > 10000 nM | 1460 nM | – | – | – | – | – | – | 92.17% | Efflux Ration [14]: 21.59; Papp A to B [14]: 0.41 10^−6 cm/s; Papp B to A [14]: 8.85 10^−6 cm/s
[2H][C@]1(O)c2nc(-n3c4nc(Nc5ccc(N6CCC7(CCN(C)CC7)CC6)c(C)c5)ncc4c(=O)n3CC=C)ccc2CCC12CC2 [Compound 61b] | – | – | – | – | – | – | – | – | – | – | – | 93.61% | 98.46% | –
C=CCn1c(=O)c2cnc(Nc3ccc(N4CCC(N(C)C)CC4)c(C)c3)nc2n1-c1ccc2c(n1)C(C)(O)C1(CC1)C2 (racemic) [Compound 15] | – | 100 to 1000 nM | 100 to 1000 nM | 100 to 1000 nM | > 10000 nM | 760 nM | – | – | – | – | – | – | 93.51% | –
C=CCn1c(=O)c2cnc(Nc3ccc(N4CCN(C)CC4)cc3)nc2n1-c1ccc2c(n1)[C@H](O)C1(CC2)CC1 (single isomer, unassigned) [Compound 4b] | ≤ 5 nM | 100 to 1000 nM | 100 to 1000 nM | 100 to 1000 nM | > 10000 nM | 1290 nM | 72.82 min | 44.82 min | >120 min | 41.74 min | 22.84 min | 77.45% | 87.71% | Efflux Ration [14]: 14.03; Papp A to B [14]: 0.94 10^−6 cm/s; Papp B to A [14]: 13.19 10^−6 cm/s; hERG Inhibition ([15]; test concentration 5 μM): 23.84 ± 4.39%; hERG Inhibition ([15]; test concentration 20 μM): 42.42 ± 5.58%
C=CCn1c(=O)c2cnc(Nc3ccc(N4CCN(C)CC4)cc3)nc2n1-c1ccc2c(n1)C(O)(C(F)(F)F)C1(CC1)C2 (centres unmarked) [Compound 32] | 5 to 10 nM | 1000 to 2000 nM | 100 to 1000 nM | 1000 to 2000 nM | > 10000 nM | 1140 nM | – | – | – | – | – | – | 96.87% | –
C=CCn1c(=O)c2cnc(Nc3ccc(N4CCC(N(C)C)CC4)c(C)c3)nc2n1-c1ccc2c(n1)[C@@](C)(O)C1(CC2)CC1 (single isomer, unassigned) [Compound 52a] | – | 100 to 1000 nM | 100 to 1000 nM | 100 to 1000 nM | 3830 nM | 480 nM | 96.19 min | 26.24 min | 31.42 min | 22.8 min | 14.22 min | – | – | –
CC(C)NCC(O)COc1cccc2ccccc12 (centres unmarked) [Propranolol] | – | – | – | – | – | – | – | – | – | – | – | – | – | Papp A→B at 90 min, 10 µM ([16]; Caco2, 10 μM, 90 min): 14.7 ×10⁻⁶ cm/s; Papp B→A at 90 min, 10 µM ([16]; Caco2, 10 μM, 90 min): 13 ×10⁻⁶ cm/s; efflux ratio at 90 min, 10 µM ([16]; Caco2, read-out: Efflux Ration): 0.88
